Test results reported in patent publication US9440933B2, “Azole derivative, method for producing same, intermediate compound, and agricultural or horticultural chemical agent and industrial material protecting agent” (KUREHA CORPORATION, priority 2011, dated 2016).

Experiments:
[1] = system: Gray mold-causing microbe (Botrytis cinerea); assay: Antimicrobial activity to various pathogenic microbes: B.c; conditions: 50 mg/L
Method: (§1) An inventive compound was dissolved in dimethylsulfoxide 2 ml. The solution 0.6 ml was added to a PDA medium (potato-dextrose-agar medium) 60 ml at around 60° C.
(§2) A flat plate containing a test microbe (wheat leaf blight-causing microbe) cultured separately was punched into pieces with a cork borer having a diameter of 4 mm and the circular plate obtained was placed on the flat plate media containing the chemical described above. The plates were cultured at 25° C. for 14 days after inoculation and the diameter of the microbial colony was determined. Hyphal expansion-inhibiting rate was calculated according to the following equation: R=100(dc−dt)/dc (wherein, R: hyphal expansion-inhibiting rate (%), dc: diameter of microbial colony on non-treated flat plate, dt: diameter of microbial colony on chemically-treated flat plate).
(§3) In this Test Example, the antimicrobial activity of the inventive compounds to various plant disease-causing fungi and industrial material-eroding microorganisms was studied by the method described in Example 1.
(§4) The results thus obtained were evaluated in 5 stages according to the criteria below:
Gray mold-causing microbe (Botrytis cinerea) B.c

[2] = system: wheat leaf rust-causing microbe; assay: Control activity of wheat leaf rust by seed treatment (pot test); assay type: in vivo, Puccinia recondita; conditions: 2 mg in DMSO applied to wheat seeds 10 g, inoculated 21 days after seeding
Method: Controlling activity to wheat leaf rust was examined in a pot test. […] The solution prepared was applied to wheat seeds 10 g in a vial and 8 wheat seeds were seeded in a 80 cm^2 pot. The seeds were grown in greenhouse, as water was supplied from below; a wheat leaf rust-causing microbe was inoculated 21 days after seeding; and the pot was stored in a constant-humidity box for 2 days. The plant was grown in green house, as water was supplied from below, and the incidence rate was determined and the controlling rate calculated […]. The controlling rate was calculated according to the equation below and used as the wheat leaf rust-controlling rate. Controlling rate=(1−Incidence rate in treated region/Incidence rate in non-treated region)×100(%)

wheat [3] = assay: Damage (necrosis) to wheat by seed treatment (pot test); assay type: in vivo; conditions: 2 mg in DMSO applied to wheat seeds 1 g, 12 days after seeding
Method: Damage (necrosis) to wheat was examined in a pot test. An inventive compound 1-2 and a comparative compound (1) were dissolved in DMSO (18 μl) respectively in an amount of 2 mg. The solution thus prepared was applied to wheat seeds 1 g in a vial and 8 seeds were seeded in a 80 cm^2 pot. The plant was grown in green house, as water was supplied from below, and the damage was determined 12 days after seeding.

[4] = system: Wheat fusarium blight-causing microbe (Fusarium graminearum); assay type: cell-based; conditions: 50 mg/L
[5] = system: Sclerotinia rot-causing microbe (Sclerotinia sclerotiorum); assay: Antimicrobial activity to various pathogenic microbes: S.s; conditions: 50 mg/L
Method: as §1, §2, §4
Sclerotinia rot-causing microbe (Sclerotinia sclerotiorum) S.s

[6] = system: Rice blast-causing microbe (Pyricularia oryzae); assay type: cell-based; conditions: 50 mg/L
[7] = system: Barley scald-causing microbe (Rhynchosporium secalis); assay: Antimicrobial activity to various pathogenic microbes: R.sec; conditions: 50 mg/L
[8] = system: wheat leaf rust-causing microbe; assay: Wheat leaf rust-controlling activity (foliar spray, pot test); assay type: in vivo, Puccinia recondita
[9] = system: wheat leaf blight-causing microbe; assay: Antimicrobial activity to wheat leaf blight-causing microbe (PDA plate, hyphal expansion inhibition); assay type: cell-based, Septoria tritici; conditions: PDA medium, 25° C., 14 days; for inhibition at 50 µg/mL / inhibition at 1.25 µg/mL: 336 h; for inhibition at 50 µg/mL: read-out: Growth inhibition; for inhibition at 1.25 µg/mL: test sample concentration 1.25 mg/L, read-out: hyphal expansion-inhibiting rate
Method: In this Test Example, antimicrobial activity of the inventive compounds to wheat leaf blight-causing microbe was determined and compared with that of the comparative compound (1).

wheat [10] = assay: Damage to wheat (growth inhibition) by seed treatment (pot test); conditions: 2 mg in DMSO applied to wheat seeds 1 g, 14 to 28 days after seeding, larger index = smaller damage
[11] = system: Wheat glume blotch-causing microbe (Phaeosphaeria nodorum); assay: Antimicrobial activity to various pathogenic microbes: P.n; conditions: 50 mg/L
Method: as §1, §2, §3, §4
Wheat glume blotch-causing microbe (Phaeosphaeria nodorum) P.n

[12] = system: wheat powdery mildew-causing microbes; assay: Controlling activity to wheat powdery mildew of seed treatment (pot test); assay type: in vivo, Erysiphe graminis f. sp tritici; conditions: 2 mg in DMSO applied to wheat seeds 1 g, 14 to 28 days after seeding
Method: Controlling activity to wheat powdery mildew was examined in a pot test. Each of the inventive compounds […]-53, and a comparative compound (1) was weighed in an amount of 2 mg and dissolved in DMSO (18 μl). The solution thus prepared was applied to wheat seeds 1 g in a vial, 8 wheat seeds were seeded in a 80 cm^2 pot. The wheat was grown, as water was supplied from blow, in a greenhouse where wheat powdery mildew-causing microbes are present abundantly. The incidence rate was determined and the controlling rate and additionally the controlling index calculated 14 to 28 days after seeding. The controlling rate was calculated and the wheat powdery mildew controlling index determined according to the following equation: Controlling rate=(1-Incidence rate in treated region/Incidence rate in non-treated region)×100(%) [table]

[13] = system: Rice bakanae disease-causing microbe (Gibberella fujikuroi); assay: Antimicrobial activity to various pathogenic microbes: G.f; conditions: 50 mg/L
Method: as §1, §2, §4

[14] = system: Barley loose smut-causing microbe (Ustilago nuda); assay: Antimicrobial activity to various pathogenic microbes: U.n; conditions: 50 mg/L
Method: as §1
(§5) The plates were cultured at 25° C. for 14 days after inoculation and the diameter of the microbial colony was determined. Hyphal expansion-inhibiting rate was calculated according to the following equation: R=100(dc−dt)/dc (wherein, R: hyphal expansion-inhibiting rate (%), dc: diameter of microbial colony on non-treated flat plate, dt: diameter of microbial colony on chemically-treated flat plate).
as §4
Barley loose smut-causing microbe (Ustilago nuda) U.n

[15] = system: Cucumber Fusarium wilt-causing microbe (Fusarium oxysporum); assay: Antimicrobial activity to various pathogenic microbes: F.c; conditions: 50 mg/L
Method: as §1, §2, §4

[16] = system: Apple alternaria blotch-causing microbe (Alternaria alternata); assay: Antimicrobial activity to various pathogenic microbes: A.m; conditions: 50 mg/L
[17] = system: Wheat eye spot-causing microbe (Pseudocercoporella herpotrichoides); assay: Antimicrobial activity to various pathogenic microbes: P.h; conditions: 50 mg/L
Method: as §1, §5, §4
Wheat eye spot-causing microbe (Pseudocercoporella herpotrichoides) P.h

[18] = Concentration 25 g/ha, wettable powder sprayed on wheat (Norin No. 61), 9 to 14 days after inoculation

Structure (SMILES)	Growth inhibition (hyphal expansion-inhibiting rate grade) B.c [1]	controlling rate (wheat leaf rust) [2] [%]	Damage (necrosis) (wheat [3])	Growth inhibition (hyphal expansion-inhibiting rate grade) F.g [4]	Growth inhibition (hyphal expansion-inhibiting rate grade) S.s [5]	Growth inhibition (hyphal expansion-inhibiting rate grade) P.o [6]	Growth inhibition (hyphal expansion-inhibiting rate grade) R.sec [7]	Controlling index [8, 18]	inhibition at 50 µg/mL ([9]; Concentration 50 mg/L) [%]	inhibition at 1.25 µg/mL [9] [%]	Damage index Growth inhibition (wheat [10])	Growth inhibition (hyphal expansion-inhibiting rate grade) P.n [11]	Controlling index Wheat powdery mildew [12]	Growth inhibition (hyphal expansion-inhibiting rate grade) G.f [13]	Growth inhibition (hyphal expansion-inhibiting rate grade) U.n [14]	Growth inhibition (hyphal expansion-inhibiting rate grade) F.c [15]	Growth inhibition (hyphal expansion-inhibiting rate grade) A.m [16]	Growth inhibition (hyphal expansion-inhibiting rate grade) P.h [17]	Controlling index ([8]; test sample concentration 1 g/ha, wettable powder sprayed on wheat)	Growth inhibition ([9]; Concentration 50 mg/L)
COC(=O)[C@]1(C)CC[C@@H](Cc2ccc(Cl)cc2)[C@]1(O)Cn1cncn1 (racemic) [Compound I-2, methyl-(1RS,2RS,3SR)-3-(4-chlorobenzyl)-2-hydroxy-1-methyl-2-(1H-1,2,4-triazol-1-ylmethyl)cyclopentanecarboxylate]	5 (hyphal expansion-inhibiting rate: 80% or more)	95	no necrotic symptom	5 (hyphal expansion-inhibiting rate: 80% or more)	5 (hyphal expansion-inhibiting rate: 80% or more)	5 (hyphal expansion-inhibiting rate: 80% or more)	5 (hyphal expansion-inhibiting rate: 80% or more)	5 (81 to 100)	> 80	≥ 80	1 (60% or more and less than 80%)	5 (hyphal expansion-inhibiting rate: 80% or more)	5 (Controlling rate: 40 or more)	5 (hyphal expansion-inhibiting rate: 80% or more)	5 (hyphal expansion-inhibiting rate: 80% or more)	5 (hyphal expansion-inhibiting rate: 80% or more)	5 (hyphal expansion-inhibiting rate: 80% or more)	5 (hyphal expansion-inhibiting rate: 80% or more)		
CC1(C)CC[C@H](Cc2ccc(Cl)cc2)[C@@]1(O)Cn1cncn1 (racemic) [Compound (1), (1RS,5SR)-5-(4-chlorobenzyl)-2-dimethyl-1-(1H-1,2,4-triazol-1-ylmethyl)cyclopentanol, reference compound]		88	necrotic symptom					5 (81 to 100)	> 80	60 to 80	0 (80% or more)		5 (Controlling rate: 40 or more)						4 (61 to 80)	
CNC(=O)[C@]1(C)CC[C@H](Cc2ccc(Cl)cc2)[C@@]1(O)Cn1cncn1 (racemic) [Compound I-148, N-methyl-(1RS,2SR,3RS)-3-(4-chlorobenzyl)-2-hydroxy-1-methyl-2-(1H-1,2,4-triazol-1-ylmethyl)cyclopentane carboxyamide]	5 (hyphal expansion-inhibiting rate: 80% or more)			5 (hyphal expansion-inhibiting rate: 80% or more)	5 (hyphal expansion-inhibiting rate: 80% or more)	5 (hyphal expansion-inhibiting rate: 80% or more)	5 (hyphal expansion-inhibiting rate: 80% or more)	5 (81 to 100)			5	5 (hyphal expansion-inhibiting rate: 80% or more)	5 (Controlling rate: 40 or more)	5 (hyphal expansion-inhibiting rate: 80% or more)	5 (hyphal expansion-inhibiting rate: 80% or more)	5 (hyphal expansion-inhibiting rate: 80% or more)	5 (hyphal expansion-inhibiting rate: 80% or more)	5 (hyphal expansion-inhibiting rate: 80% or more)		5 (hyphal expansion-inhibiting rate: 80% or more)
